The structures appear in SMILES notation.

Take `Cc1cc(C)c(C(=O)CCCC(=O)O)c(C)c1`: the melting point (commonly the temperature, or range, at which the solid turns liquid) lay within 75 to 77 °C.

Compound `CCCn1c(CCC(=O)O)nc2cc(S(N)(=O)=O)ccc21` gave a melting point of 259 to 261 °C.

In turn, `Cc1cc(Cl)nnc1C` had a melting point of 45 to 47 °C.

`O=C(O)CN1N=C(C(F)(F)F)CC1=O` came in with a melting point of 218 to 220 °C.

In turn, `CCOC(=O)c1c(C)[nH]c(C(=O)C(C)Cl)c1C` (stereo unspecified) came in with a melting point of 148 to 150 °C.

In turn, `Cc1ccc(NC(=O)C(Cl)c2ccccc2)cc1Cl` (stereo unspecified) had a melting point of 120 to 122 °C.

For `CC(=O)N1c2ccc(S(=O)(=O)Cl)cc2CC1C` (stereo unspecified), the melting point was 112 to 114 °C.

`O=C(O)CCNS(=O)(=O)c1ccc2ccccc2c1` came in with a melting point of 170 to 180 °C.

As for `O=C(O)c1ccc(CNC(=O)C2CCCC2)cc1`, the melting point lay within 228 to 230 °C.

The compound `NC(=O)c1ccccc1N1CCC(N)CC1` displayed a melting point of 143 to 145 °C.

`CS(=O)(=O)Cc1ccc(C(=O)O)o1` came in with a melting point of 186 to 188 °C.

`Cc1cc(C(=O)CCl)c(C)n1CC1CCCO1` (stereo unspecified) returned a melting point of 88 to 90 °C.

In turn, `COc1ccc(CNS(C)(=O)=O)cc1` registered a melting point of 89 to 91 °C.

Compound `CCCOc1nc2ccccc2cc1/C=C/C(=O)O` showed a melting point of 159 to 161 °C.

For the compound `Sc1nnc(C2CC2)n1C1CC1`, the melting point lay in the range of 138 to 140 °C.

`Nc1cc(Cl)c(OCC(F)(F)F)c(Cl)c1` yielded a melting point of 89 to 91 °C.

As for `CC(C)Oc1ccc(CCC(=O)O)cc1`, the melting point is 74 to 76 °C.

Regarding `O=C1NC(=O)C(c2cccc(O)c2)N1` (stereo unspecified), the melting point was 213 to 215 °C.

`O=C(O)c1c[nH]c(=O)[nH]1` had a melting point of 232 to 236 °C.

In turn, `NC(=S)Nc1cccc2c1CCCC2` gave a melting point of 165 to 167 °C.

For the compound `CC(C)CC(=O)Nc1ccccc1C(=O)O`, the melting point was 121 to 123 °C.

Consider `O=C(O)CN(Cc1ccco1)c1cccc(Cl)c1`, for which the melting point lay within 115 to 117 °C.

For the compound `Cc1ccc(OCCC(=O)O)c(Br)c1`, the melting point fell in the range of 119 to 121 °C.

The compound `CC(C)NS(=O)(=O)Cc1ccc(CN)cc1` returned a melting point of 148 to 150 °C.

`O=C(O)CCc1ccoc1` showed a melting point of 63 to 65 °C.

The compound `Nc1cccc(-c2cc[nH]n2)c1` had a melting point of 137 to 139 °C.

For the compound `COc1ccc(S(=O)(=O)NC(CCC(N)=O)C(=O)O)cc1` (stereo unspecified), the melting point was in the range of 171 to 173 °C.

In turn, `Cc1cc(C)n(-c2ccc(CC#N)cc2)n1` had a melting point of 45 to 55 °C.

`Cc1nc2ccccc2n1CCO` yielded a melting point of 147 to 149 °C.

The compound `COC(=O)c1c(N)sc(C)c1C` gave a melting point of 124 to 126 °C.

For the compound `CN1CCN(C(=O)c2ccccc2N)CC1`, the melting point lay in the range of 74 to 76 °C.

Compound `Cc1ccc(S(=O)(=O)NCCC(=O)O)cc1` showed a melting point of 148 to 150 °C.

Compound `COc1cc(C(=O)O)c([N+](=O)[O-])cc1OCC1CCCO1` (stereo unspecified) had a melting point of 159 to 161 °C.

Compound `Cc1ccc(-n2nc(C)c(C=O)c2Cl)cc1` yielded a melting point of 135 to 137 °C.

The compound `O=C(O)c1cccn1-c1cccc(I)c1` came in with a melting point of 165 to 167 °C.

As to `Nc1nc(Cl)ccc1F`, the melting point is 84 to 86 °C.

For the compound `O=C(O)CC1COCCN1` (stereo unspecified), the melting point is 253 to 255 °C.

For the compound `NC(=O)CC1CC1`, the melting point was in the range of 125 to 127 °C.

The compound `Cc1ccc(N)cc1OCC1CCOCC1` returned a melting point of 114 to 116 °C.

`ClCc1coc(-c2ccccc2)n1`: the melting point was in the range of 51 to 55 °C.

Consider `COCCn1nnnc1N`, for which the melting point lay within 114 to 116 °C.

The compound `CC(Cl)C(=O)Nc1cccc(CSc2ccccn2)c1` (stereo unspecified) yielded a melting point of 97 to 99 °C.

`O=S(=O)(Nc1nc2ccccc2nc1Cl)c1cc(F)ccc1F` displayed a melting point of 250 to 252 °C.

In turn, `O=C(O)CCNS(=O)(=O)c1ccc(Cl)cc1` showed a melting point of 155 to 159 °C.

In turn, `O=C(O)C1=NC=CN2CCS(=O)(=O)N=C12` displayed a melting point of 183 to 187 °C.

As to `CSC(=NS(C)(=O)=O)SC`, the melting point fell in the range of 88 to 90 °C.

`CC(C)(C)OC(=O)N1CCC(=O)C(Br)C1` (stereo unspecified) registered a melting point of 95 to 97 °C.

Compound `Nc1ccc2c(c1)N(CCO)CC2` showed a melting point of 59 to 61 °C.

In the case of `O=C(O)CCCCCCN1C(=O)C=CC1=O`, the melting point lay in the range of 79 to 81 °C.

On to `c1ccc(CN2CCOC(c3nn[nH]n3)C2)cc1` (stereo unspecified), for which the melting point is 178 to 180 °C.

Consider `O=C(O)CCc1c(-c2ccccc2)[nH]c2ccc(F)cc12`, for which the melting point was 161 to 163 °C.

`Cc1ccc(-c2nc(C(=O)O)cs2)o1`: the melting point is 194 to 196 °C.

`CC(CC(=O)c1cccc(F)c1)C(=O)O` (stereo unspecified) came in with a melting point of 96 to 98 °C.

`N#Cc1ccc(OCC2CO2)cc1` (stereo unspecified) came in with a melting point of 64 to 66 °C.

As to `CCOC(=O)c1c[nH]n2c1nc(=O)c1ccccc12`, the melting point fell in the range of 201 to 203 °C.

`Cc1noc(C)c1S(=O)(=O)NC1(C(=O)O)CCCC1` returned a melting point of 176 to 178 °C.

`CC(Br)c1ccc2ccccc2c1` (stereo unspecified) came in with a melting point of 62 to 64 °C.

For `OCc1ccc(F)c2cccnc12`, the melting point was in the range of 131 to 133 °C.

With `Cc1[nH]n(-c2ccc(Cl)c(Cl)c2)c(=N)c1C`, the melting point lay in the range of 156 to 158 °C.

`CC1=NNC(=O)C1CCN` (stereo unspecified) gave a melting point of 229 to 231 °C.

`COC(=O)c1ccccc1-n1ncc(Cl)c(Cl)c1=O` yielded a melting point of 125 to 127 °C.

`O=C(O)c1ccccc1N1CCCCC1` had a melting point of 59 to 61 °C.

In turn, `Cc1csc(CC(N)=S)n1` came in with a melting point of 126 to 128 °C.

`CCOc1ccc(C(=O)O)cn1`: the melting point was 184 to 186 °C.

In turn, `O=C(O)C1CC(=O)N(c2ccc3c(c2)CCC3)C1` (stereo unspecified) yielded a melting point of 179 to 181 °C.

For the compound `Cc1cc(Br)c(C)c(S(=O)(=O)Cl)c1`, the melting point is 163 to 165 °C.

On to `O=C(O)c1cc2ccc(-c3ccccc3)cc2[nH]1`, for which the melting point was in the range of 250 to 252 °C.

The compound `NNC(=O)CCOc1ccccc1` yielded a melting point of 69 to 71 °C.

Consider `CN(C(=O)c1cccc(C(=O)O)c1)c1ccccc1`, for which the melting point lay in the range of 170 to 172 °C.

Take `NCC(O)c1cccc(OCc2ccccc2)c1` (stereo unspecified): the melting point lay within 107 to 109 °C.

On to `COC(=O)c1cc([N+](=O)[O-])ccc1S(=O)(=O)Cl`, for which the melting point fell in the range of 109 to 111 °C.

`CC(NC(=O)CCC(=O)O)C(=O)c1ccccc1` (stereo unspecified) came in with a melting point of 96 to 98 °C.

Compound `Nc1sc2c(c1C(=O)O)CCC2` gave a melting point of 147 to 149 °C.

Take `COc1cc(C=O)ccc1OCc1cccs1`: the melting point was in the range of 79 to 81 °C.

Regarding `CC(=O)c1ccc(-n2ccnc2C)cc1`, the melting point is 132 to 134 °C.

Take `Cn1cnc(-c2ccc(C(=O)O)cc2)n1`: the melting point lay in the range of 274 to 276 °C.

`O=S(=O)(Cl)c1ncn[nH]1` displayed a melting point of 58 to 60 °C.

Consider `O=Cc1ccn(-c2ccccc2)n1`, for which the melting point is 49 to 51 °C.

Consider `COC(=O)c1ccc2c(=O)[nH]c(CCl)nc2c1`, for which the melting point is 210 to 212 °C.

Regarding `O=C(O)c1ccn(-c2c(Cl)cc([N+](=O)[O-])cc2Cl)n1`, the melting point lay in the range of 206 to 208 °C.

The compound `O=C(C1CCCCC1)N1CCNCC1` came in with a melting point of 86 to 88 °C.

As for `Cc1cc([N+](=O)[O-])ccc1NC(=O)CCl`, the melting point was in the range of 118 to 120 °C.

`NNC(=O)c1cccc(S(=O)(=O)N2CCOCC2)c1` returned a melting point of 140 to 142 °C.

Compound `COc1ccc(NC(=O)CCl)c([N+](=O)[O-])c1` had a melting point of 98 to 100 °C.

The compound `Cc1ccc(S(=O)(=O)NCCCC(=O)O)cc1C` showed a melting point of 111 to 113 °C.

Compound `CCCOC(=O)c1ccc(S(=O)(=O)Cl)cc1` showed a melting point of 36 to 38 °C.

Source of the values: a melting point compilation (Tetko et al.).
